Data taken from US20060281806A1, “Treatment and inhibition of disease conditions using flexible heteroarotinoids” (priority 2005, published 2006).
Entries after “also recorded” stand apart in the source; their conditions may differ.

What was measured:
[1] = tested on: NCI human tumor cell line panel; experiment: SHetA2 cytotoxicity in NCI human tumor cell line panel; assay type: cell-based; conditions: 48 h
Procedure: The SHetA2 compound was evaluated in the National Cancer Institute (NCI) human tumor cell line panel by the Developmental Therapeutics Program (DTP). The human tumor cell lines were grown in RPMI 1640 medium containing 5% fetal bovine serum and 2 mM L-glutamine. Cells were inoculated into 96 well microtiter plates at densities ranging from 5,000 to 40,000 cells/well depending on the doubling time of individual cell lines and incubated for 24 h prior to addition of SHetA2. After 24 h, two plates of each cell line were fixed in situ with TCA, to represent a measurement of the cell population for each cell line at the time of drug addition (Tz). Drugs were dissolved in dimethyl sulfoxide (DMSO) and diluted in complete medium containing 50 μg/ml gentamicin, prior to addition to the culture wells. […] […] The absorbance was read on an automated plate reader at a wavelength of 515 nm. Using the seven absorbance measurements (time zero, (Tz), control growth, (C), and test growth in the presence of drug at the five concentration levels (Ti)), the GI50 was calculated from [(Ti−Tz)/(C−Tz)]×100=50. […]

[2] = tested on: OVCAR-3 xenograft tumors; experiment: OVCAR-3 xenograft tumor animal model, tumor growth; assay type: in vivo, mouse; conditions: 10 mg/kg/day by gavage, 5 days/week, 4 weeks; t-test on day 29
Procedure: Groups of 5 mice bearing OVCAR-3 xenografted tumors were gavaged daily with the indicated drugs in sesame oil (▪ closed square) or with sesame oil alone (∘ open circle). Tumor volumes were measured in 3 dimensions with calipers weekly. Each data point represents the average and standard error of the tumor volumes on the indicated treatment day relative to the tumor volume on day zero. Nu/nu mice were injected subcutaneously with one million OVCAR-3 cells and arbitrarily divided into five groups of six mice each. After three weeks of tumor growth, the animals were gavaged with sesame oil, 10 mg/kg/day 4-HPR, or the indicated Het five times per week for four weeks and the tumors were measured once per week. The tumor sizes were averaged and divided by the average size for each group on the day that treatment was initiated (day 0).
The OVCAR-3 cultures were maintained in RPMI media supplemented with 10% fetal bovine serum. All animal experimentation described in this manuscript was conducted in accord with accepted standards of humane animal care. Twenty-five female NU/NU CD-1 female mice (Charles Rivers Laboratories) were housed in a laminar flow room under sterile conditions at 83-85° F. The mice were quarantined for one week prior to the beginning of the study and were allowed access to autoclaved food (Purina 5001 mouse/rat sterilizable diet, St. Louis, Mo.) and water ad libitum. OVCAR-3 cells in log phase growth were harvested by trypsinization, resuspended in RPMI culture medium, and centrifuged at 3,000 rpm for 10 min. The pellets were resuspended in RPMI culture medium at a concentration of 7×10^6 cells/ml before implantation into mice. Animals were injected with 3.5×10^6 cells into the right scapular region with a 24-gauge needle/1 cc tuberculin syringe. Twenty-four hours after tumor implantation, animals were randomized into 5 groups of 5 animals each.
The Hets SHet50, SHetA2 and SHetA4 were synthesized and their receptor specificity determined as previously described (17,19). The 4-HPR compound was a gift from R.W. Johnson Pharmaceutical Research Institute, Raritan, N.J. All retinoids were dissolved in super refined sesame oil (Croda, Inc., Parsippany, N.J.) and stored at −80° C. Since the retinoids are light sensitive, all manipulations involving retinoids were performed under subdued lighting. […] Tumors were measured with calipers weekly, and tumor volumes were calculated using the formula: volume=length×width×height. Tumor growth was determined by the dividing the volume of the tumor at each weekly measurement by the volume on the first day of treatment. Animal weights and clinical signs of overall health status and cutaneous toxicities were recorded weekly.

[3] = tested on: EAhy.926 endothelial cells; experiment: Endothelial tube branching on matrigel; assay type: cell-based; conditions: various concentrations (1, 5, 10 μM); scored after twenty hours
Source text: The graph on the left provides quantification of the endothelial branches for each treatment dose.

[4] = tested on: ovarian carcinoma organotypic cultures; experiment: Organotypic culture model of ovarian tumors; assay type: cell-based, human; conditions: 1 μM retinoid in media; 3, 7 or 14 days
Procedure: FIG. 17. Retinoid effects on ovarian carcinoma organotypic cultures. Organotypic cultures of OVCAR-3 (A, B, E, F, I and J), Caov-3 (C and G), SK-OV-3 (D and H), and O2 (K and L) were grown in the absence (−, top row and K) or presence (+, middle row and I, J and L) of retinoid HetA4 at a concentration of 1 μM in the media. All sections were stained with H&E except for I, which was stained with PAS to detect glycoproteins and glandular differentiantion, and J, which was stained with the TUNEL assay to detect apoptosis. All magnifications are 40×.
To test our hypotheses, we evaluated the effects of clinically achievable concentrations of 4-HPR and Flex-Hets on growth, differentiation and apoptosis in ovarian tissue. A series of compounds with a variety of receptor activation profiles were evaluated. In order to evaluate therapeutic effects, we developed an organotypic culture model of ovarian tumors by growing established cell lines and primary cultures inside collagen gels. Monolayer cultures of cells are not accurate representations of in vivo tissue because they lack the types of interactions that cells have with other cells and with the extracellular matrix in vivo. These interactions are known to influence gene expression and thus the constitution and behavior of cells. In our organotypic model, the growth of tumor cells inside the collagen allows a representation of tumors that have invaded stromal tissue. In the presence of fibroblasts, established cell lines and primary cultures of ovarian cancer formed colonies inside the collagen, while normal or benign ovarian epithelial cells remained as single cells inside the collagen. Human ovarian cancer cell lines (OVCAR-3, Caov-3, SK-OV-3, A2780, UCI 101) and primary human cultures (borderline ovarian tumor (O1), serous papillary tumor (O2), benign ovarian cyst (O3)) were cultured inside and on top of a collagen gel seeded with 3T3 fibroblasts for one week. After further incubation in the presence or absence of 1 μM retinoid (media concentration) for 3, 7 or 14 days, cultures were fixed and sectioned for immunohistochemical analysis.

[5] = RAID pharmacokinetic studies (35); cited from earlier work

CC1(C)CC(C)(C)c2cc(NC(=S)Nc3ccc([N+](=O)[O-])cc3)ccc2S1 [SHetA2]
percent growth ([1]; 10 and 100 μM SHetA2, majority of cell lines): negative percent growth levels | GI50 values ([1]; 55 cell lines representing 9 cancer types): micromolar range | growth of xenograft tumors versus sesame oil control [2]: significantly inhibited the growth; also recorded: significantly less | endothelial tube branching (in vitro angiogenesis) [3]: dose-responsive inhibition of angiogenesis | induction of apoptosis (TUNEL) in organotypic cultures [4]: Apoptosis was induced; also recorded: highest level of apoptosis | regulation of growth, differentiation and apoptosis, rank among eleven retinoids [4]: most potent regulator of growth, differentiation and apoptosis | concentrations achieved and maintained in mice [5]: micromolar concentrations
